Assay results: patent publication US4150049A, “Esters of aromatic sulfonic acids” (The Government of the United States, priority 1977, dated 1979)

Columns and labels:
[1] = target: T1, Plasmin (human) (Homo sapiens, UniProt P00747); test: Dixon plot competitive inhibition of esterase action of human plasmin; format: biochemical; conditions: Dixon plots, pH 6.0; Ki (M) x 10^5; read-out: Inhibition constant Ki (M) x 10^5, Plasmin (human)
T1 construct: from tissue; host or cells: Cohn fraction III (human plasma)
T1 sequence (P00747 581-810 limits assumed): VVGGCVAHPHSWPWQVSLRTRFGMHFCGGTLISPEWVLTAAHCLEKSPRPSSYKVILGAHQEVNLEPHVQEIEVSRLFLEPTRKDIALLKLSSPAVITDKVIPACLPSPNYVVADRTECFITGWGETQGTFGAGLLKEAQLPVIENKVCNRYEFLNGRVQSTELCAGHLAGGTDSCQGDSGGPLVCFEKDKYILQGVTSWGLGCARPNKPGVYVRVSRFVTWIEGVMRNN
T1 sequence (P00747 97-580 limits assumed): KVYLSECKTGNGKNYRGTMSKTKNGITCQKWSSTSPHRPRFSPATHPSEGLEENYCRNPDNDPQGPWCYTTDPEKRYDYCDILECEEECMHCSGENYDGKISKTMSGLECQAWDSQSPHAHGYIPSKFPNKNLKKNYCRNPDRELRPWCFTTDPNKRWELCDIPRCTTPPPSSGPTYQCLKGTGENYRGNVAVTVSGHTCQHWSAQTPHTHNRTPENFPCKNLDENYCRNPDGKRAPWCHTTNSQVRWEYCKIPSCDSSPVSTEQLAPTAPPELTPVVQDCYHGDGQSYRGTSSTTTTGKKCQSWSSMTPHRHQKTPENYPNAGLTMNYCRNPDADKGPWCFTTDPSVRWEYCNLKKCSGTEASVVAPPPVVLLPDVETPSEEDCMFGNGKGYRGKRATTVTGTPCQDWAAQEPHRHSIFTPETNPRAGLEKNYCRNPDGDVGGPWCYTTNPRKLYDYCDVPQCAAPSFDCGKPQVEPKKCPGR
Experimental: (§1) In accordance with the present invention, nitrophenyl m- and p-amidinophenylmethanesulfonate were prepared, and these compounds were examined for their properties related to inhibition and inactivation of specific enzymes. With regard to the enzymes employed, bovine β-trypsin and thrombin were chromatographically purified by known procedures. Human plasminogen was purified from Cohn fraction III and activated with streptokinase. Human plasma kallikrein was purified about 1000-fold from activated Cohn fraction IV, by affinity chromatography. Human thrombin was prepared by the method of Miller and Copeland. Bovine chymotrypsin three times crystallized was also employed, along with streptokinase.
(§2) Enzyme concentrations were determined by titration with nitrophenyl p-guanidinobenzoate in the case of trypsin, plasmin, and thrombin, whereas chymotrypsin molarity was based on weight. Kallikrein concentration is expressed in enzyme units as measured in a pH-state by esterase action on 0.02 M tos-Arg-OMe in 0.06 M KCl at pH 7.85; one unit corresponds to the hydrolysis of 1 μmole of ester per minute under these conditions.
(§3) Optical density change at 340 nm was measured with double beam operation as described above. […]

[2] = target: T2, Thrombin (bovine) (Bos taurus, UniProt P00735); test: Dixon plot competitive inhibition of hydrolysis of benzyloxy-lysine-nitrophenyl ester by bovine thrombin; format: biochemical
T2 construct: made in house
Experimental: as §1, §2, §3

[3] = target: T3, α-Chymotrypsin (Bos taurus, UniProt P00766); test: Dixon plot competitive inhibition of hydrolysis of benzyloxy-lysine-nitrophenyl ester by α-chymotrypsin; format: biochemical, bovine; conditions: Dixon plots, pH 6.0; Ki (M) x 10^5; read-out: Inhibition constant Ki (M) x 10^5, α-Chymotrypsin
T3 construct: α-Chymotrypsin
Experimental: as §1, §2, §3

[4] = target: T4, β-Trypsin (Bos taurus, UniProt P00760); test: Dixon plot competitive inhibition of hydrolysis of benzyloxy-lysine-nitrophenyl ester by β-trypsin; format: biochemical, bovine; conditions: Dixon plots, pH 6.0; Ki (M) x 10^5; read-out: Inhibition constant Ki (M) x 10^5, β-Trypsin
T4 construct: bovine β-trypsin; made in house
T4 sequence (P00760 24-246): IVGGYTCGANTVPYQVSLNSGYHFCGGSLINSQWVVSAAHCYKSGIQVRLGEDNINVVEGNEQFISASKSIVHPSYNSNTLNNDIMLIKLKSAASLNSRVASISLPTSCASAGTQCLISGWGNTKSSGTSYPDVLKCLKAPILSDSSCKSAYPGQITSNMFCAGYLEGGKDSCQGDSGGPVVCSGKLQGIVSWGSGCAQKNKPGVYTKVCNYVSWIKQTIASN
Experimental: as §1, §2, §3

[5] = target: T5, Thrombin (human) (Homo sapiens, UniProt P00734); test: Dixon plot competitive inhibition of hydrolysis of benzyloxy-lysine-nitrophenyl ester by human thrombin; format: biochemical; conditions: Dixon plots, pH 6.0; Ki (M) x 10^5; read-out: Inhibition constant Ki (M) x 10^5, Thrombin (human)
T5 construct: made in house
Experimental: as §1, §2, §3

[6] = target: T6, Plasma kallikrein (human) (Homo sapiens, UniProt P03952); test: Dixon plot competitive inhibition of esterase action of human plasma kallikrein; format: biochemical; conditions: Dixon plots, pH 6.0; Ki (M) x 10^5; read-out: Inhibition constant Ki (M) x 10^5, Plasma kallikrein (human)
T6 construct: from tissue
T6 sequence (P03952 391-638 limits assumed): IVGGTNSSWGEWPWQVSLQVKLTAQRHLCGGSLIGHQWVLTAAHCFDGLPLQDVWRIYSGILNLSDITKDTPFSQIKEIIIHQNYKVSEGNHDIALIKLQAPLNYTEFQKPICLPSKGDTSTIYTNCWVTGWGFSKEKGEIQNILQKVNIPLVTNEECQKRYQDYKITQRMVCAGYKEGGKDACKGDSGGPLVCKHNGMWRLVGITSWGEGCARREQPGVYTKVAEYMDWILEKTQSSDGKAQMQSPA
T6 sequence (P03952 20-390 limits assumed): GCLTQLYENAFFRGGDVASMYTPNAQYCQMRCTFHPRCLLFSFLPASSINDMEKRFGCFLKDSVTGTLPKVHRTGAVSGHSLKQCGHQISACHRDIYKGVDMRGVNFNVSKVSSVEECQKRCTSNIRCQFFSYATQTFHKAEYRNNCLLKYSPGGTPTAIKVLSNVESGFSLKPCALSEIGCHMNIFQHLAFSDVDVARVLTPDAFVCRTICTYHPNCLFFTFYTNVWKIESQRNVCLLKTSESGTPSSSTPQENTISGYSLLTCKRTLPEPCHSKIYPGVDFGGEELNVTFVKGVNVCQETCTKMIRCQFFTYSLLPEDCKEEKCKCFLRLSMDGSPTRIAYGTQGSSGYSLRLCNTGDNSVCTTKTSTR
Experimental: as §1, §2, §3

[7] = target: thrombin (Bos taurus, UniProt P00735); test: presteady state kinetics of nitrophenol production by thrombin; format: biochemical, bovine
Experimental: as §1
The action of thrombin on nitrophenyl p-amidinophenylmethanesulfonate was also studied in 0.05 M sodium veronal buffer, pH 7.4 (with 0.02 M Ca^2+ + at a series of reagent concentrations to determine the possible formation of an intermediate complex as a step in the inactivation process. The apparatus was the same as above and presteady state nitrophenol production was analyzed for the calculation of k2 and KS. Concentrations of the p-isomer were 0.5, 1.0, 2.0, 2.5, 3.75, and 5.0×10^-4 M. One of the progress curves is shown in FIG. 1, with this graph representing the action of thrombin (3×10^-6 M) on the p-isomer, pH 8.3, 25° C., with stoichiometric nitrophenol release accompanying inactivation. Although the full chromogeneity of nitrophenol is not reached at this pH, the final value in each case was equal to that obtained in control titrations with NPGB.

Structure (SMILES): N=C(N)c1cccc(CS(=O)(=O)Oc2ccc([N+](=O)[O-])cc2)c1 [m-isomer]
- Ki [1]: 4.2e-05 M
- Ki [2]: 415 µM
- Ki [3]: 1.3e-05 M
- Ki [4]: 9e-06 M
- Ki [5]: 5.3e-05 M
- Ki [6]: 1.9e-05 M

Structure (SMILES): N=C(N)c1ccc(CS(=O)(=O)Oc2ccc([N+](=O)[O-])cc2)cc1 [p-isomer]
- Kd [7]: 120 µM
- Ki [7]: 120 µM
- kinact ([7]; presteady state kinetics, pH 7.4, read-out: rate constant for inactive enzyme formation, k2 (converted)): 0.0193 s⁻¹
- Ki [1]: 0.0005 M
- Ki [3]: 3.6e-05 M
- Ki [4]: 7e-05 M
- Ki [6]: 4.7e-05 M
